Reference: patent US11179326B2, “Short duration depot formulations” (Durect Corporation, priority 2002, dated 2021)
Where a name gives a salt, the structure may show the parent alone.

What was measured:
[1] = Saturation concentration in de-ionized water; type: physicochemical; conditions: DI water
Description: Bupivacaine hydrochloride (Sigma-Aldrich Corporation, St. Louis, MO) was dissolved in de-ionized (DI) water at a concentration of 40 mg/ml (saturation). A calculated amount of sodium hydroxide (1 N solution) was added to the solution and the pH of the final mixtures was adjusted to 10 to precipitate the BP base. The precipitated product was filtered, and further washed with DI water for at least three times. The precipitated product was dried at approximately 40° C. in vacuum for 24 h.

[2] = reported value; cited from earlier work

| SMILES | concentration in de-ionized water (saturation) [1] [µg/mL] | solubility in water [2] |
| --- | --- | --- |
| CCCCN1CCCCC1C(=O)Nc1c(C)cccc1C (centres unmarked) [Bupivacaine hydrochloride] | 40000 |  |
| CC(=O)OCC(COC(C)=O)OC(C)=O [triacetin] |  | 7.17 grams in 100 ml of water |
